A word on the residual activity: it is the signal under treatment as a percentage of the control signal.

The results in this text go back to the kinase profiling compilation of Christmann-Franck et al. (2016).

What all share (assay): radiometric filter-binding kinase assay, Kinaseprofiler
For experiment [1], the target named is CDC42BPB (human) (UniProt Q9Y5S2). The settings on record: ATP 10 µM.
Experiment [2] addresses RET (human) (UniProt P07949). The settings on record: ATP 70 µM.
In experiment [3] the target is JAK2 JH1 catalytic (human) (UniProt O60674). The following applies: ATP 45 µM.
Experiment [4] concerns the target CAMK4 (human) (UniProt Q16566). The settings on record: ATP 10 µM.
Experiment [5] addresses LIMK1 (human) (UniProt P53667). The following applies: ATP 15 µM.

Each structure is given as a SMILES string.

Chain of RET (human) (P07949 whole entry, looked up): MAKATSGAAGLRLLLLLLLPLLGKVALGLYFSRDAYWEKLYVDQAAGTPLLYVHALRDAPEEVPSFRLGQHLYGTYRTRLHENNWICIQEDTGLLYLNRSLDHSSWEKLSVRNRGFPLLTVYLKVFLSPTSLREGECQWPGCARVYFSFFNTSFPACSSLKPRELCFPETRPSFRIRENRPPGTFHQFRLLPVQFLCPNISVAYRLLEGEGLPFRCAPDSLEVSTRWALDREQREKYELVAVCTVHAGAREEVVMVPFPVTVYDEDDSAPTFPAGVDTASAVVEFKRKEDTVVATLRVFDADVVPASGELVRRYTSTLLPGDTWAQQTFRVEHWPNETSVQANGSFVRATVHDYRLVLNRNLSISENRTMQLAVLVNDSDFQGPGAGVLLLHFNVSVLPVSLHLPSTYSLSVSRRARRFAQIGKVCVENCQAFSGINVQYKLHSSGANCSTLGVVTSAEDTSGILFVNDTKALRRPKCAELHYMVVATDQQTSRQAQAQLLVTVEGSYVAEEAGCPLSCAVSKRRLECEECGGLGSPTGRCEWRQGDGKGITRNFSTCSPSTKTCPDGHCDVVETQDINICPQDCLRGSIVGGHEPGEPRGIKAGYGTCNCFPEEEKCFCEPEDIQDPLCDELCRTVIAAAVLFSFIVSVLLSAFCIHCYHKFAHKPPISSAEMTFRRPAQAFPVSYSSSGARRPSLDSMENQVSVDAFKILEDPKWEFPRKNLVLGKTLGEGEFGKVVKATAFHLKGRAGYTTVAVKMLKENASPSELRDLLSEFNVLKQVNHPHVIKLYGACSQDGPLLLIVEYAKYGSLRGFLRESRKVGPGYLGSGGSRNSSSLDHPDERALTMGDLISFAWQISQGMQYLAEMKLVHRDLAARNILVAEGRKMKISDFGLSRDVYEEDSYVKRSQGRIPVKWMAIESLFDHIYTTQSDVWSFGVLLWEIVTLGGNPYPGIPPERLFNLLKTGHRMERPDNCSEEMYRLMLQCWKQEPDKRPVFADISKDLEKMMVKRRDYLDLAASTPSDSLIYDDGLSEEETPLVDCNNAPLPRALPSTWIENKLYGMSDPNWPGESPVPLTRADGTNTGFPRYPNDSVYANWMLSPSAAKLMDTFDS
Chain of JAK2 JH1 catalytic (human) (O60674 whole entry, looked up): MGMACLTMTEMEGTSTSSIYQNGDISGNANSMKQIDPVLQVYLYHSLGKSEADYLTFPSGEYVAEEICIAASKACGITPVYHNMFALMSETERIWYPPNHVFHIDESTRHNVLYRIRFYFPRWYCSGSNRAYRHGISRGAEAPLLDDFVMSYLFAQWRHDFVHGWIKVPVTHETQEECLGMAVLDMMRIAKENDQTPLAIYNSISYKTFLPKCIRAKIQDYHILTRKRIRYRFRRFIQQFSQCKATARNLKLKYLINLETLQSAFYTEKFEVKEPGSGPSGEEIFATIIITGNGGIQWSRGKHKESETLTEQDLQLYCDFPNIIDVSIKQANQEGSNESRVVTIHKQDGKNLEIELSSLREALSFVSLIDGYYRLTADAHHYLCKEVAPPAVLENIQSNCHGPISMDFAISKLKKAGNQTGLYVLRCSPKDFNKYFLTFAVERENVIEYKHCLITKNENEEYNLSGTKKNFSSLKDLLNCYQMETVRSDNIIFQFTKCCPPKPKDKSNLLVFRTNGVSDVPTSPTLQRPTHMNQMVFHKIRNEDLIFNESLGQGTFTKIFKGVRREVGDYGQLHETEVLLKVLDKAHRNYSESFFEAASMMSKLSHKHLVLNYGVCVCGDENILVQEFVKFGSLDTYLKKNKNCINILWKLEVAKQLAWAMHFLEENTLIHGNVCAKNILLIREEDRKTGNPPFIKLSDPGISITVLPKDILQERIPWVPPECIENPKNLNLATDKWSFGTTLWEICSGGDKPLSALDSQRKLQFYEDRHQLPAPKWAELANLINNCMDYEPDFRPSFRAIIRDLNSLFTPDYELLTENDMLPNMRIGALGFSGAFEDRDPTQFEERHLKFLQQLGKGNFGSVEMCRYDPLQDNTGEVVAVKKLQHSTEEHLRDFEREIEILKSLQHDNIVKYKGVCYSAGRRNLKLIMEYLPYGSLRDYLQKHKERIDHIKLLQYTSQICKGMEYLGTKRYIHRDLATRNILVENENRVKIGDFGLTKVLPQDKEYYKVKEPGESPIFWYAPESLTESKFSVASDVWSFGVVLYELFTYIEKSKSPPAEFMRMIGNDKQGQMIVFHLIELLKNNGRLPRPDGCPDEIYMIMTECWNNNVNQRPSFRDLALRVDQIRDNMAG
Chain of LIMK1 (human) (P53667 whole entry, looked up): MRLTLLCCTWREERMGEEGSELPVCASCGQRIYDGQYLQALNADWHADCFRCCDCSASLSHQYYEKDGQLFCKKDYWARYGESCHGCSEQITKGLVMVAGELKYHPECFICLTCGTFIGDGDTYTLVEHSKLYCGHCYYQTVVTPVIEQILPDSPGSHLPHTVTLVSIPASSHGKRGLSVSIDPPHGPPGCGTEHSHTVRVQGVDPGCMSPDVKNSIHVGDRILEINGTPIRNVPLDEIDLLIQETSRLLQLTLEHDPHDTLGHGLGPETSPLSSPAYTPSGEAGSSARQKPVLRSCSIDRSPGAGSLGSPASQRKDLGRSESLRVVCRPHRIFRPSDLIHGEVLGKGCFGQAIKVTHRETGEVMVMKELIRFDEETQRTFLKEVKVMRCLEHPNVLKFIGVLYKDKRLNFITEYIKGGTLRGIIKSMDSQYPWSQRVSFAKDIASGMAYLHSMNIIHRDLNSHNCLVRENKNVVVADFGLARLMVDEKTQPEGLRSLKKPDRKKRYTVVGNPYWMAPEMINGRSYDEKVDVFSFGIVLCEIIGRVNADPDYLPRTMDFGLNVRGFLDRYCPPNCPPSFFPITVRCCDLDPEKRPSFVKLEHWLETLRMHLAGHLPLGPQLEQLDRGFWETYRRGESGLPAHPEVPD
Chain of CAMK4 (human) (Q16566 whole entry, looked up): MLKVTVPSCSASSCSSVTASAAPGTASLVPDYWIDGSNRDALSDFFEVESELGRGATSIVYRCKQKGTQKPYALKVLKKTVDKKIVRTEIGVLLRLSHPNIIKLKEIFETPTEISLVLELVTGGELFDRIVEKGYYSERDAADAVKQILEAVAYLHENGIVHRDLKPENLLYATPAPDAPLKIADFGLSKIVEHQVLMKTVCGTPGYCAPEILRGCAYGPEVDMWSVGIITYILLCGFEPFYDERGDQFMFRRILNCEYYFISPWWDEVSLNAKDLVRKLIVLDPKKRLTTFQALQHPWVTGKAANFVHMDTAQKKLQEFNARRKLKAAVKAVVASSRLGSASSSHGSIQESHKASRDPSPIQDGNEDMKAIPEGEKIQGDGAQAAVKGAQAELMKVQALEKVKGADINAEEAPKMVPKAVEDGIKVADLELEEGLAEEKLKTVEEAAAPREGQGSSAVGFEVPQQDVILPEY
Chain of CDC42BPB (human) (Q9Y5S2 whole entry, looked up): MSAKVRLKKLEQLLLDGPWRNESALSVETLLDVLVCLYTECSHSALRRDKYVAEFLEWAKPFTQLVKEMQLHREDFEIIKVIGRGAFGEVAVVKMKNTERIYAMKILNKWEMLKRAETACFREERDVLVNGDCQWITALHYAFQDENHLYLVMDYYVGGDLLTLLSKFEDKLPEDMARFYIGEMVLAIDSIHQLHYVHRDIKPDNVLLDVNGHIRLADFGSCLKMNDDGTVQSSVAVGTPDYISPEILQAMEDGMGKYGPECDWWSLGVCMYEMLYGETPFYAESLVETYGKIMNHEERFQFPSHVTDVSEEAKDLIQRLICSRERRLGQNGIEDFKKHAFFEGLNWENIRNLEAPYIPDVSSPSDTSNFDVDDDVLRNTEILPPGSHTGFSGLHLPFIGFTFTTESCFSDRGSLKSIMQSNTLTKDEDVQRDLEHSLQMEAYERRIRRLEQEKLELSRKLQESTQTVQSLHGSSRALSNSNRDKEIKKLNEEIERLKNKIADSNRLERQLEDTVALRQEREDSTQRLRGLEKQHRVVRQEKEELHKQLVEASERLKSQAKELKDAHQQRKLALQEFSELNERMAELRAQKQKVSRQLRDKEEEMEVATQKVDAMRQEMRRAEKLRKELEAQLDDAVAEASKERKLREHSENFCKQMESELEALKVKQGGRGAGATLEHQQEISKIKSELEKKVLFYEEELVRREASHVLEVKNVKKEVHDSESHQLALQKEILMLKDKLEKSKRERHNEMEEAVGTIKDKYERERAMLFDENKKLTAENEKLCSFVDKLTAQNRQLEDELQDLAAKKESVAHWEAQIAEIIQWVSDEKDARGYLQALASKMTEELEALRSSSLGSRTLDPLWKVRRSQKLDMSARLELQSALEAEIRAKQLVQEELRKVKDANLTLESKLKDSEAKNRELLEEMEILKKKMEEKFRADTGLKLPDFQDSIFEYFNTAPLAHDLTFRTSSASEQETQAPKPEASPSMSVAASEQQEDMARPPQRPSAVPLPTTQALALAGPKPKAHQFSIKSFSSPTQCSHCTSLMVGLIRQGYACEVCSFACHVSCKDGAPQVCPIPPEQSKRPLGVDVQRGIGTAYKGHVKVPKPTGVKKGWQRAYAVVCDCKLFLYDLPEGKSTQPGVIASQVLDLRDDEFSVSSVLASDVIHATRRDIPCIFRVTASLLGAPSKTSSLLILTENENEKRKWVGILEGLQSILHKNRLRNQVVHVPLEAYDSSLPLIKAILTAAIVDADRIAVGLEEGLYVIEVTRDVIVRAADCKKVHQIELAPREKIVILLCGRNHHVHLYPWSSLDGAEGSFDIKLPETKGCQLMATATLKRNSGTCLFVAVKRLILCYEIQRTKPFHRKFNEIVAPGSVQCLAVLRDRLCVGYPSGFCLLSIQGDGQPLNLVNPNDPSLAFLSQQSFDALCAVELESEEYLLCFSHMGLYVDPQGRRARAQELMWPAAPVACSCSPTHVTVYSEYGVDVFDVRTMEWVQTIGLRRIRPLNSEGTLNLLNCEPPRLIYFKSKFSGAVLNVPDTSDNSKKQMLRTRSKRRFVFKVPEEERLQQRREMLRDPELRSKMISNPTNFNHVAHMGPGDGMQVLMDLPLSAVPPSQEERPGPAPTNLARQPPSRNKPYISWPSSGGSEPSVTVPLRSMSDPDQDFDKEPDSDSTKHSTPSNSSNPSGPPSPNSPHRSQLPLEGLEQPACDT

Regarding `O=C1Nc2ccccc2/C1=C1\Nc2ccccc2\C1=N/O`, the residual activity in experiment [1] (compound 1.0 µM) came to 106%; in experiment [1] (compound 10.0 µM), 103%; in experiment [2] (compound 1.0 µM), 1%; in experiment [2] (compound 10.0 µM), 0%; in experiment [3] (compound 1.0 µM), 92%; in experiment [3] (compound 10.0 µM), 11%. The residual activity turned out to be 66% in experiment [4] (compound 1.0 µM), 10% in experiment [4] (compound 10.0 µM), 61% in experiment [5] (compound 1.0 µM) and 21% in experiment [5] (compound 10.0 µM).
